≈ marks a conversion by molar mass, not a printed value.
What was measured:
[1] = Solubility in ethanol by high performance liquid chromatography
Procedure: Excess crystal form 1 and crystal form 2 were weighed and suspended in ethanol, shaken for 12 h, and high performance liquid chromatography was used to test the solubility.

[2] = High temperature stability of crystal form (XRPD test); assay type: physicochemical; conditions: oven at 60±2° C., 5 and 10 days
Procedure: XRD (X-ray powder diffraction) method: instrument model: Rigaku Ultima IV; target: Cu-Kα (40 kV, 40 mA); using a D/tex Ultra detector at room temperature. The scanning range is from 3° to 45 in the 2θ interval, and the scanning speed is 20°/minute. […] After 5 and 10 days, the sample was taken out for XRPD test to investigate the crystalline stability of the sample to temperature.

[3] = High humidity stability of crystal form (XRPD test); assay type: physicochemical; conditions: 90±5% humidity, 5 days and 10 days
Procedure: (§1) XRD (X-ray powder diffraction) method: instrument model: Rigaku Ultima IV; target: Cu-Kα (40 kV, 40 mA); using a D/tex Ultra detector at room temperature. The scanning range is from 3° to 45 in the 2θ interval, and the scanning speed is 20°/minute.

[4] = Light stability of crystal form (XRPD test); assay type: physicochemical; conditions: 4500±500 lux light intensity, 5 days and 10 days
Procedure: as §1

[5] = tested on: wheat white powder; experiment: Live spray protection of plants, prevention and control effect; assay type: in vivo
Excerpt: The water-dispersible granules preparations with 50% of crystal form 1 and crystal form 2 were formulated into solutions, respectively, and the plants were protected by live spray. Crystal form 2 has better prevention and control effect.

CC(C)(C)C(O)(CCc1ccc(Cl)cc1)Cn1cncn1 (racemic) [crystal form 1, (RS)-1-(4-chlorophenyl)-4,4-dimethyl-3-(1H-1,2,4-triazol-1-ylmethyl) pentan-3-ol]
solubility at 12 h ([1]; organic solvent or mixture, thermodynamic from solid, Solubility, excess solid suspended in ethanol, shaken for 12 h, HPLC): 92.1 mg/mL (≈ 299 mM)

CC(C)(C)C(O)(CCc1ccc(Cl)cc1)Cn1cncn1 (racemic) [crystal form 2, (RS)-1-(4-chlorophenyl)-4,4-dimethyl-3-(1H-1,2,4-triazol-1-ylmethyl) pentan-3-ol]
crystalline stability of the sample to temperature [2]: stable
crystalline stability of the samples to humidity [3]: stable
crystal form stability of the sample to light [4]: stable
solubility in ethanol relative to crystal form 1 ([1]; ethanol, crystal form 2 versus crystal form 1): about 1.7 times
Solubility ([1]; excess solid suspended in ethanol, shaken for 12 h, HPLC): 156.2 mg/mL (≈ 507 mM)

CC(C)(C)C(O)(CCc1ccc(Cl)cc1)Cn1cncn1 (racemic) [96% tebuconazole TC, (RS)-1-(4-chlorophenyl)-4,4-dimethyl-3-(1H-1,2,4-triazol-1-ylmethyl) pentan-3-ol]
prevention and control effect ([5]; concentration 0.15625 mg/L): 0%
prevention and control effect ([5]; concentration 0.625 mg/L): 30%
prevention and control effect ([5]; concentration 2.5 mg/L): 50%
prevention and control effect ([5]; concentration 10 mg/L): 100%

Reference: US11186552B2, “Tebuconazole polymorph and preparation method therefor” (East China University of Science and Technology, priority 2017, dated 2021)
